Results from ChEMBL document CHEMBL1146972, “Specific inhibitors of Plasmodium falciparum thioredoxin reductase as potential antimalarial agents” (Bioorg Med Chem Lett, 2006).

What was measured:
Thioredoxin reductase [1] = biological target: T1, Thioredoxin reductase (Plasmodium falciparum 3D7, UniProt P61076); experiment: Inhibition of Plasmodium falciparum TrxR
T1 sequence (P61076 whole entry): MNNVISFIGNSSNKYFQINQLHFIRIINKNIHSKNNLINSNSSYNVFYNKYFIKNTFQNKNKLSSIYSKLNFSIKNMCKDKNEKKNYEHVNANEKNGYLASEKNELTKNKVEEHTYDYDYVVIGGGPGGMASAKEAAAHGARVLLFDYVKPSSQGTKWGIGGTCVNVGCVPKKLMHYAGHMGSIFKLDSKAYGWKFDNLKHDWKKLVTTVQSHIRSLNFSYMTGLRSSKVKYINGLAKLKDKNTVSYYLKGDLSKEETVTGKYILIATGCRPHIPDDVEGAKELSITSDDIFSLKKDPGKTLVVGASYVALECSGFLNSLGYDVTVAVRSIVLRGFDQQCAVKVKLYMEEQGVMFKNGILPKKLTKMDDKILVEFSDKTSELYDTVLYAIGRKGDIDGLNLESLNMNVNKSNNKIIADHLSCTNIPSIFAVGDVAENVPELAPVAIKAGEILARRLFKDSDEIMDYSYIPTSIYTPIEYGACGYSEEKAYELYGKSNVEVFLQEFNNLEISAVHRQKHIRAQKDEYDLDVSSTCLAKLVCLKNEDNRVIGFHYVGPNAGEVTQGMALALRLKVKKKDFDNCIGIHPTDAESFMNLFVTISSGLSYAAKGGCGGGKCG

Thioredoxin reductase [2] = biological target: Thioredoxin reductase (Homo sapiens, UniProt Q16881+Q9NNW7+Q86VQ6); experiment: Inhibition of human TrxR; assay type: protein assay
[3] = biological target: T2, Thioredoxin reductase (Plasmodium falciparum 3D7) (UniProt P61076); experiment: Inhibition of Plasmodium falciparum TrxR at 100 uM
T2 sequence (whole entry): T1 sequence (P61076 whole entry)

Plasmodium falciparum [4] = experiment: Inhibition of Plasmodium falciparum K1 as [3H]hypoxanthine uptake; assay type: functional, organism-based
[5] = biological target: T3, Glutathione reductase, mitochondrial (Homo sapiens) (UniProt P00390); experiment: Inhibition of human GR at 2 uM
T3 sequence (whole entry): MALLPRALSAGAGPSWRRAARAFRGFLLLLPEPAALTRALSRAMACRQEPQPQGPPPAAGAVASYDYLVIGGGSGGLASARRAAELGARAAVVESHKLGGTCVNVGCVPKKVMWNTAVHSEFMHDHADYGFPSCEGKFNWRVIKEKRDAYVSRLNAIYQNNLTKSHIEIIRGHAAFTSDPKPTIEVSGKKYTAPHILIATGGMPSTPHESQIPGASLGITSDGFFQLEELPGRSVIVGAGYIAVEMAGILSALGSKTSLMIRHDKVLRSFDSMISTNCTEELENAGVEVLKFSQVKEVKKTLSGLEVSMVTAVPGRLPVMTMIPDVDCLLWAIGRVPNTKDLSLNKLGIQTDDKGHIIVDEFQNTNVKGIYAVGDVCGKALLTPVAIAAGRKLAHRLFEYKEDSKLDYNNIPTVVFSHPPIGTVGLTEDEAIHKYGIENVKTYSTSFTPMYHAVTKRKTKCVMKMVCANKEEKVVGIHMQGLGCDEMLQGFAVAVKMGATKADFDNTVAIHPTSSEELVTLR

[6] = biological target: Glutathione reductase (Plasmodium falciparum 3D7) (UniProt O15770); experiment: Inhibition of Plasmodium falciparum GR at 2 uM
Thioredoxin reductase [7] = biological target: T1, Thioredoxin reductase; experiment: Binding affinity to Plasmodium falciparum TrxR in presence of thioredoxin
Thioredoxin reductase [8] = biological target: T1, Thioredoxin reductase; experiment: Binding affinity to Plasmodium falciparum TrxR in presence of NADPH
Plasmodium falciparum [9] = experiment: Growth inhibition against Plasmodium falciparum K1; assay type: functional, organism-based
[10] = biological target: T2, Thioredoxin reductase (Plasmodium falciparum 3D7); conditions: 100 uM
[11] = biological target: T2, Thioredoxin reductase (Plasmodium falciparum 3D7); conditions: 2 uM
[12] = biological target: T2, Thioredoxin reductase (Plasmodium falciparum 3D7); conditions: 2 uM; remark: listed apart in the source

Glutathione reductase (Plasmodium falciparum 3D7), sequence (O15770 whole entry): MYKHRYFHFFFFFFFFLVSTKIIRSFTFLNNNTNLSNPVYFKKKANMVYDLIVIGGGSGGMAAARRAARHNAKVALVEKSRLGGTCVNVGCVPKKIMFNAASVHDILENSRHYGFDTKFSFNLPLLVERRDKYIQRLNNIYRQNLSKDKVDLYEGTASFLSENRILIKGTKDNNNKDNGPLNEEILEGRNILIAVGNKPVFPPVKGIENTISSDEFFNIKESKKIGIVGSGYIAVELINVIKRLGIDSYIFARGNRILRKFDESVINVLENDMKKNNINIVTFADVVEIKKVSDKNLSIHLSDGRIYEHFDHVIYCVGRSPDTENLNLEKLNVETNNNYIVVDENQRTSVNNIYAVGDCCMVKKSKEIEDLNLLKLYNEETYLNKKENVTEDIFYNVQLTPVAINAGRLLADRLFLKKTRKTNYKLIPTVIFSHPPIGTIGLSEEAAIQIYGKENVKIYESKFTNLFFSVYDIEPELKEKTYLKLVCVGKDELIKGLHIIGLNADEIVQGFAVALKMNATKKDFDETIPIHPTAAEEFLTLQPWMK

## O=[N+]([O-])c1cc(C(F)(F)F)ccc1Sc1ccc(C(F)(F)F)cc1[N+](=O)[O-]
Thioredoxin reductase [1]
  IC50: 20 µM
Thioredoxin reductase [2]
  IC50: > 150 µM

## O=[N+]([O-])c1ccc2nccnc2c1
Thioredoxin reductase [1]
  IC50: 40 µM
Thioredoxin reductase [2]
  IC50: > 200 µM

## O=[N+]([O-])c1ccc2c(c1[N+](=O)[O-])OCO2
Thioredoxin reductase [1]
  IC50: 10 µM
Thioredoxin reductase [2]
  IC50: 80 µM

## O=[N+]([O-])c1cc([N+](=O)[O-])cc(C(F)(F)F)c1
Thioredoxin reductase [1]
  IC50: 30 µM
Thioredoxin reductase [2]
  IC50: > 200 µM

## O=[N+]([O-])c1cc(C(F)(F)F)cc([N+](=O)[O-])c1Cl [CHLORALIN]
Thioredoxin reductase [1]
  IC50: 8 µM
Thioredoxin reductase [2]
  IC50: 100 µM

## O=[N+]([O-])c1ccc2c(c1)OCO2
[3]
  inhibition: < 10%
Thioredoxin reductase [2]
  IC50: > 200 µM

## O=[N+]([O-])c1ccc2nsnc2c1
Thioredoxin reductase [1]
  IC50: 10 µM
Thioredoxin reductase [2]
  IC50: 90 µM

## O=[N+]([O-])c1cccc2nsnc12
Plasmodium falciparum [4]
  IC50: 2.9 µM
Thioredoxin reductase [1]
  IC50: 2 µM
Thioredoxin reductase [2]
  IC50: 50 µM
[5]
  inhibition: 81%
[6]
  inhibition: 69%
Thioredoxin reductase [7]
  Ki: 0.65 µM
Thioredoxin reductase [8]
  Ki: 1 µM
Plasmodium falciparum [9]
  IC50: 11 µM

## O=[N+]([O-])c1cc2nccnc2cc1[N+](=O)[O-]
Thioredoxin reductase [1]
  IC50: 2 µM
Thioredoxin reductase [2]
  IC50: 140 µM
[5]
  inhibition: 27%
[6]
  inhibition: 39%
Plasmodium falciparum [9]
  IC50: 15 µM
[10]
  inhibition: 15%
[11]
  inhibition: 15%
[12]
  inhibition: 70%
